Reference: publication PMC12036747, “Effects of galloflavin and ellagic acid on sirtuin 6 and its anti-tumorigenic activities” (Biomedicine & pharmacotherapy = Biomedecine & …, 2020)

Key:
Type in all cases: biochemical
SIRT3 = target: T1, SIRT3 (Homo sapiens, UniProt Q9NTG7); assay: Fluor de Lys deacetylation assay, moderate inhibition at […]
T1 sequence (Q9NTG7 102-399): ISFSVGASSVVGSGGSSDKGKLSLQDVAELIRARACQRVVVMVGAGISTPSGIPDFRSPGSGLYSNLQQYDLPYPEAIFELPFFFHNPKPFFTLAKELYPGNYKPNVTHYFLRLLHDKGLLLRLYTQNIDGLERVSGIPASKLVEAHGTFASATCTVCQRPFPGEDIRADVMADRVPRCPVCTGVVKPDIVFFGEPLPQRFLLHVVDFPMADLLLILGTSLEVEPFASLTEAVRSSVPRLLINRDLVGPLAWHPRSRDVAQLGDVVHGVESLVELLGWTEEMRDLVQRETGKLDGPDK

SIRT1 = target: T2, SIRT1 (Homo sapiens, UniProt Q96EB6); assay: as above
T2 sequence (Q96EB6 2-747): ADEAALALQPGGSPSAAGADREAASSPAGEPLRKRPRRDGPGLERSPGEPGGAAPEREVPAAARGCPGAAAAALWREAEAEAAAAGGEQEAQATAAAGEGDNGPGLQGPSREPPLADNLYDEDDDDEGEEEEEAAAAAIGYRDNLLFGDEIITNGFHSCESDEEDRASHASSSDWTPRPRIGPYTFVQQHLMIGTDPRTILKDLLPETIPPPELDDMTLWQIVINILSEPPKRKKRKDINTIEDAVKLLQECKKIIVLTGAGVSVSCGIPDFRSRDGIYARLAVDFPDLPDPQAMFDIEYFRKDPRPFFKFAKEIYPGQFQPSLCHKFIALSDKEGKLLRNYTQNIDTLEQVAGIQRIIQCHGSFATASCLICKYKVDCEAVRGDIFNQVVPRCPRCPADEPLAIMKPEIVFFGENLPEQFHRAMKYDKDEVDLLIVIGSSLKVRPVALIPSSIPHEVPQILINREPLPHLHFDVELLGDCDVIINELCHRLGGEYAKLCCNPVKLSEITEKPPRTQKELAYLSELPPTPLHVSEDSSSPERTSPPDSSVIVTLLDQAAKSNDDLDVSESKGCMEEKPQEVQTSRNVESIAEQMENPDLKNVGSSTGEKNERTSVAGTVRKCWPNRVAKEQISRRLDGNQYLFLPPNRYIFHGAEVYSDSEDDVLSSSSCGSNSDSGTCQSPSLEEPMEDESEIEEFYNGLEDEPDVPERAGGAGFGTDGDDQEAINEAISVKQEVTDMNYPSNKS

Sirtuin 6 (SIRT6) [1] = target: T3, Sirtuin 6 (SIRT6) (Homo sapiens, UniProt Q8N6T7); assay: HPLC deacetylation assay with H3K9Ac peptide (activation); immunoblot with core histones; Michaelis-Menten kinetics
T3 construct: recombinant GST-tagged human SIRT6

SIRT2 = target: T4, SIRT2 (Homo sapiens, UniProt Q8IXJ6); assay: Fluor de Lys deacetylation assay, inhibition at […]
T4 sequence (Q8IXJ6 2-389): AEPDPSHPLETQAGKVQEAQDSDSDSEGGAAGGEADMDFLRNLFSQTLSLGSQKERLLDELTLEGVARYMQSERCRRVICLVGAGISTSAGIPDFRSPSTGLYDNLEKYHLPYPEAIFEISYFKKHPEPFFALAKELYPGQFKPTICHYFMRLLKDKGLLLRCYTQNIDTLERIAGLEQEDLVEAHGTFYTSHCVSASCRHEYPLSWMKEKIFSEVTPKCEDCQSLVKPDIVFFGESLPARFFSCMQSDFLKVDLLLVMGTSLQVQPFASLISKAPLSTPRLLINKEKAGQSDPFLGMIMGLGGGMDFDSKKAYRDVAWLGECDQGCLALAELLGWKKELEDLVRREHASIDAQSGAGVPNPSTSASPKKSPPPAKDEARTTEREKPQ

Sirtuin 6 (SIRT6) [2] = target: T3, Sirtuin 6 (SIRT6); assay: HPLC deacetylation assay with H3K9Ac peptide (activation); immunoblot with core histones

T3 sequence (Q8N6T7 2-355): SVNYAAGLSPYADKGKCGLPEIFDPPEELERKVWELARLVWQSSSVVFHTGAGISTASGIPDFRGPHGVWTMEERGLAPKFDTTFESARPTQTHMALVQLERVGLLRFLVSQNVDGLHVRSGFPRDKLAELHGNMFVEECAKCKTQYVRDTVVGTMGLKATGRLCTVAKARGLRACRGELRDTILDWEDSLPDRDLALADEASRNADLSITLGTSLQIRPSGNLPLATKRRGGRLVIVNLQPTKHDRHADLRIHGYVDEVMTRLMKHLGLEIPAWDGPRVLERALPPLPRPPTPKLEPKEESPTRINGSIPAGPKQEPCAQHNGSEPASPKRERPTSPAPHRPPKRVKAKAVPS

| EC50 (Sirtuin 6 (SIRT6) [2]) [µM] | Compound | Fluor de Lys deacetylation assay, moderate inhibition at 100 μM (SIRT3) | Fluor de Lys deacetylation assay, moderate inhibition at 100 μM (SIRT1) | EC50 (Sirtuin 6 (SIRT6) [1]) [µM] | % (SIRT2) |
| --- | --- | --- | --- | --- | --- |
| – | O=c1oc2c(O)c(O)cc3c(=O)oc4c(O)c(O)cc1c4c23 [Ellagic acid] | Galloflavin and Ellagic acid displayed moderate inhibition against SIRT1 and SIRT3 | Galloflavin and Ellagic acid displayed moderate inhibition against SIRT1 and SIRT3 | 25 | up to 60 % inhibition at 100 μM |
| 79 | O=c1oc2c(cc1O)oc(=O)c1cc(O)c(O)c(O)c12 [Galloflavin] | Galloflavin and Ellagic acid displayed moderate inhibition against SIRT1 and SIRT3 | Galloflavin and Ellagic acid displayed moderate inhibition against SIRT1 and SIRT3 | – | up to 60 % inhibition at 100 μM |
